Results from patent US8569336B2, “Compounds for the treatment of inflammatory disorders” (priority 2008, dated 2013).
Where two headings read alike, the source gives them in different places.

How the values were obtained:
[1] = system: TNF-α production from human whole blood; experiment: Inhibition of TNF-α production from human whole blood (hWBA), LPS stimulated, ELISA; type: cell-based; details: Homo sapiens, TNF-α by ELISA, read-out: hWBA (IC50)
[2] = target: T1, purified catalytic domain of recombinant human TACE (rhTACEc) (Homo sapiens, UniProt P78536, N452Q/S266A); experiment: TACE kinetic assay: cleavage of internally quenched peptide substrate TNF-FRET 2 (Ki); type: biochemical; details: TNF-FRET 2 substrate
T1 construct: 6xHis (C); made in house; host or cells: baculovirus/Hi5 insect cells
T1 sequence (P78536 215-477 S266A/N452Q): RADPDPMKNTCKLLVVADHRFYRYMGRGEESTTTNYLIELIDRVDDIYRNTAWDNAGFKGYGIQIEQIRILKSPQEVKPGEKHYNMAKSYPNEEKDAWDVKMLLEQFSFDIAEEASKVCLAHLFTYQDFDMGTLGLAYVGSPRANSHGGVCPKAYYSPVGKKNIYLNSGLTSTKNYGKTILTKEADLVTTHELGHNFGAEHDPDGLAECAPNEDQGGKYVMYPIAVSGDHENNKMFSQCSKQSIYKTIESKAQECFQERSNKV

[3] = Area under the curve determinations of plasma levels in rats (rrAUC), oral 10 mg/kg; type: in vivo; details: rat, read-out: RR AUC (rapid rat AUC, rrAUC)
[4] = human whole blood diluted 1:1, LPS stimulated
[5] = plasma, blood collected 0.5-6 h post-dosing
[6] = 3.5 h, human whole blood diluted 1:1, LPS stimulated, 3.5 h
[7] = LPS-stimulated human whole blood

Row | SMILES | IC50 [1, 4] [nM] | Ki ([2]; read-out: Ki) [nM] | AUC [3, 5] [µM·h] | IC50 [1, 6] [nM] | AUC ([3]; plasma 0.5-6 h post-dosing) [µM·h] | IC50 [1, 7] [nM] | Ki ([2]; Ki) [nM] | AUC ([3]; plasma 0.5-6 h) [µM·h]
1 | COc1ccc2c(c1)C(=O)N(C[C@@]1(c3cc4c(N5CCCC5=O)nccc4o3)NC(=O)NC1=O)C2 [Compound 2293] | 531 | 1.26 | 0.219 | – | – | – | – | –
2 | COc1ccc2c(c1)C(=O)N(C[C@@]1(c3cc4nc(N5CCN(CCN(C)C)CC5)ccc4o3)NC(=O)NC1=O)C2 [Compound 2142] | – | 0.875 | – | 463 | 0.06 | – | – | –
3 | COc1ccc2c(c1)C(=O)N(C[C@@]1(c3cc4c5c(ccc4o3)C(=O)NC5)NC(=O)NC1=O)C2 [Compound 2504] | 189 | 0.45 | 0.181 | – | – | – | – | –
4 | COc1ccc2c(c1)C(=O)N(C[C@@]1(c3cc4cc(Cl)ncc4o3)NC(=O)NC1=O)C2 [Compound 2300] | 902 | 0.49 | 22.7 | – | – | – | – | –
5 | COc1ccc2c(c1)C(=O)N(C[C@@]1(c3cc4c(C#N)nccc4o3)NC(=O)NC1=O)C2 [Compound 323] | – | – | – | – | – | 1240 | 0.7 | 0.485
6 | COc1ccc2c(c1F)C(=O)N(C[C@@]1(c3cc4nc(N5C[C@@H](O)CC5=O)ccc4o3)NC(=O)NC1=O)C2 [Compound 1501] | – | 0.5 | – | – | – | 131 | – | 0.667
7 | COc1ccc2c(c1)C(=O)N(C[C@@]1(c3cc4nc(-c5cnn(C)c5)ccc4o3)NC(=O)NC1=O)C2 [Compound 2104] | – | – | – | 285 | 0.369 | – | 0.191 | –
8 | COc1ccc2c(c1)C(=O)N(C[C@@]1(c3cc4cc(-n5cncn5)ccc4o3)NC(=O)NC1=O)C2 [Compound 2196] | – | 0.645 | – | 1540 | 7.06 | – | – | –
9 | COc1ccc2c(c1)C(=O)N(C[C@@]1(c3cc4cnc(-c5cccnc5)cc4o3)NC(=O)NC1=O)C2 [Compound 2232] | – | 0.538 | – | 1100 | 2.22 | – | – | –
10 | COc1ccc2c(c1)C(=O)N(C[C@@]1(c3cc4cc(C5(C)NC(=O)NC5=O)cnc4o3)NC(=O)NC1=O)C2 (stereo partly drawn) [Compound 500] | – | 0.695 | – | – | – | 163 | – | 1.1
11 | COc1ccc2c(c1)C(=O)N(C[C@@]1(c3cc4nc(N(c5cccnc5)C5CCNCC5)ccc4o3)NC(=O)NC1=O)C2 [Compound 2145] | – | – | – | 174 | 0.086 | – | 0.547 | –
12 | COc1ccc2c(c1F)C(=O)N(C[C@@]1(c3cc4nc(-n5ccnc5)ccc4o3)NC(=O)NC1=O)C2 [Compound 1523] | – | 0.6 | – | – | – | 289 | – | 4.29
13 | COc1ccc2c(c1F)C(=O)N(C[C@@]1(c3cc4nc(Nc5cncc(F)c5)ccc4o3)NC(=O)NC1=O)C2 [Compound 1733] | – | 0.71 | – | – | – | 454 | – | 0.904
14 | COc1ccc2c(c1)C(=O)N(C[C@@]1(c3cc4nc(-c5ccncc5)ccc4o3)NC(=O)NC1=O)C2 [Compound 2110] | – | 0.62 | – | 351 | 10.5 | – | – | –
15 | COc1ccc2c(c1)C(=O)N(C[C@@]1(c3cc4nc(N5CCC5=O)ccc4o3)NC(=O)NC1=O)C2 [Compound 2173] | – | 0.955 | – | 243 | 2.54 | – | – | –
16 | COc1ccc2c(c1)C(=O)N(C[C@@]1(c3cc4nc(-c5cncnc5)ccc4o3)NC(=O)NC1=O)C2 [Compound 2147] | – | 0.299 | – | 1080 | 2.19 | – | – | –
17 | COc1ccc2c(c1)C(=O)N(C[C@@]1(c3cc4nc(-n5cccn5)ccc4o3)NC(=O)NC1=O)C2 [Compound 2165] | – | – | – | 1370 | 21 | – | 0.405 | –
18 | COc1ccc2c(c1)C(=O)N(C[C@@]1(c3cc4cc(-c5cn[nH]c5)c(F)cc4o3)NC(=O)NC1=O)C2 [Compound 1186] | – | 0.56 | – | 550 | 0.285 | – | – | –
19 | COc1ccc2c(c1F)C(=O)N(C[C@@]1(c3cc4nc(-c5c(C)nn(C)c5C)ccc4o3)NC(=O)NC1=O)C2 [Compound 2119] | – | 0.39 | – | 243 | 7 | – | – | –
20 | COc1ccc2c(c1)C(=O)N(C[C@@]1(c3cc4cc(-c5ccccc5O)ncc4o3)NC(=O)NC1=O)C2 [Compound 2241] | – | 1.19 | – | ≥ 10000 | 1.39 | – | – | –
21 | COc1ccc2c(c1)C(=O)N(C[C@@]1(c3cc4nc(NC(=O)c5ccncc5)ccc4o3)NC(=O)NC1=O)C2 [Compound 2135] | – | 1.2 | – | 2780 | 0.56 | – | – | –
22 | COc1ccc2c(c1F)C(=O)N(C[C@@]1(c3cc4cc(C5(C)NC(=O)NC5=O)cnc4o3)NC(=O)NC1=O)C2 (stereo partly drawn) [Compound 504] | – | 0.758 | – | – | – | 239 | – | 3.66
23 | COc1ccc2c(c1)C(=O)N(C[C@@]1(c3cc4c(N5CCOCC5)nccc4o3)NC(=O)NC1=O)C2 [Compound 2281] | 510 | 0.458 | 0.749 | – | – | – | – | –
24 | COc1ccc2c(c1)C(=O)N(C[C@@]1(c3cc4nc(N5CCC[C@H]5CO)ccc4o3)NC(=O)NC1=O)C2 [Compound 1513] | – | 0.7 | – | – | – | 526 | – | 0.524

Row | SMILES | IC50 [1, 4] [nM] | Ki ([2]; read-out: Ki) [nM] | AUC [3, 5] [µM·h] | IC50 [1, 6] [nM] | AUC ([3]; plasma 0.5-6 h post-dosing) [µM·h] | IC50 [1, 7] [nM] | Ki ([2]; Ki) [nM] | AUC ([3]; plasma 0.5-6 h) [µM·h]
25 | COc1ccc2c(c1)C(=O)N(C[C@@]1(c3cc4cc(C5(C)NC(=O)NC5=O)c(C)cc4o3)NC(=O)NC1=O)C2 (stereo partly drawn) [Compound 2207] | – | 0.813 | – | 310 | 0.063 | – | – | –
26 | COc1ccc2c(c1)C(=O)N(C[C@@]1(c3cc4cnc(-c5cccc(C#N)c5)cc4o3)NC(=O)NC1=O)C2 [Compound 2489] | 8420 | 0.799 | 10.6 | – | – | – | – | –
27 | CCC1(c2cc(F)c3oc([C@]4(CN5Cc6ccc(OC)cc6C5=O)NC(=O)NC4=O)cc3c2)NC(=O)NC1=O (stereo partly drawn) [Compound 2210] | – | 0.319 | – | 232 | 0.018 | – | – | –
28 | COc1ccc2c(c1)C(=O)N(C[C@@]1(c3cc4c(C5=NCCN5)nccc4o3)NC(=O)NC1=O)C2 [Compound 2274] | – | 2 | – | 2240 | 0.033 | – | – | –
29 | COc1ccc2c(c1)C(=O)N(C[C@@]1(c3cc4cc(C(=O)N5CCN(C)CC5)ccc4o3)NC(=O)NC1=O)C2 [Compound 2426] | 850 | – | 0.057 | – | – | – | 1.26 | –
30 | COc1ccc2c(c1)C(=O)N(C[C@@]1(c3cc4cnc(-c5ccncc5)cc4o3)NC(=O)NC1=O)C2 [Compound 2231] | – | – | – | 1420 | 2.75 | – | 0.54 | –
31 | COc1ccc2c(c1F)C(=O)N(C[C@@]1(c3cc4nc(N5CCN(C6CC6)CC5)ccc4o3)NC(=O)NC1=O)C2 [Compound 1711] | – | 0.5 | – | – | – | 113 | – | 5.09
32 | COc1ccc2c(c1F)C(=O)N(C[C@@]1(c3cc4cccnc4o3)NC(=O)NC1=O)C2 [Compound 2271] | – | 0.36 | – | 218 | 10.6 | – | – | –
33 | COc1ccc2c(c1F)C(=O)N(C[C@@]1(c3cc4nc(Nc5ccc(-c6cn[nH]c6)cn5)ccc4o3)NC(=O)NC1=O)C2 [Compound 1734] | – | 1.92 | – | – | – | 289 | – | 0.068
34 | COc1ccc2c(c1F)C(=O)N(C[C@@]1(c3cc4nc(N5CCC(OC)(OC)CC5)ccc4o3)NC(=O)NC1=O)C2 [Compound 1715] | – | 2.79 | – | – | – | 480 | – | 0.199
35 | CCOC(=O)N1CCc2oc([C@]3(CN4Cc5ccc(OC)cc5C4=O)NC(=O)NC3=O)cc2C1 [Compound 315] | – | – | – | – | – | 654 | 0.93 | 4.03
36 | COc1ccc2c(c1F)C(=O)N(C[C@@]1(c3cc4nc(N5CCN(C)C5=O)c(F)cc4o3)NC(=O)NC1=O)C2 [Compound 1329] | – | 0.59 | – | – | – | 234 | – | 0.226
37 | CCc1nccc2oc([C@]3(CN4Cc5ccc(OC)cc5C4=O)NC(=O)NC3=O)cc12 [Compound 2289] | 358 | 0.25 | 3.56 | – | – | – | – | –
38 | COc1ccc2c(c1F)C(=O)N(C[C@@]1(c3cc4cc(F)c5c(c4o3)CNC5=O)NC(=O)NC1=O)C2 [Compound 2501] | 148 | 0.86 | 0.448 | – | – | – | – | –
39 | COc1ccc2c(c1F)C(=O)N(C[C@@]1(c3cc4nc(N5CCCNC5=O)ccc4o3)NC(=O)NC1=O)C2 [Compound 2146] | – | 0.974 | – | 507 | 0.522 | – | – | –
40 | COc1ccc2c(c1)C(=O)N(C[C@@]1(c3cc4ccc(-c5nnc(C)o5)cc4o3)NC(=O)NC1=O)C2 [Compound 2190] | – | 0.515 | – | 958 | 0.414 | – | – | –
41 | COc1ccc2c(c1)C(=O)N(C[C@@]1(c3cc4cc(NC(=O)N(C)C)ccc4o3)NC(=O)NC1=O)C2 [Compound 2228] | – | 0.839 | – | 2370 | 0.129 | – | – | –
42 | COc1ccc2c(c1)C(=O)N(C[C@@]1(c3cc4cc(-c5csc(N)n5)ccc4o3)NC(=O)NC1=O)C2 [Compound 2220] | – | 0.243 | – | 722 | 0.165 | – | – | –
43 | COc1ccc2c(c1)C(=O)N(C[C@@]1(c3cc4cnc(Cl)cc4o3)NC(=O)NC1=O)C2 [Compound 2285] | 368 | 0.44 | 22.2 | – | – | – | – | –
44 | COc1ccc2c(c1)C(=O)N(C[C@@]1(c3cn4cccnc4n3)NC(=O)NC1=O)C2 [Compound 750] | – | – | – | – | – | 705 | 1.91 | 0.32
45 | COc1ccc2c(c1F)C(=O)N(C[C@@]1(c3cc4nc(Cl)c(F)cc4o3)NC(=O)NC1=O)C2 [Compound 1328] | – | – | – | – | – | 2680 | 0.49 | 5.61
46 | COc1ccc2c(c1F)C(=O)N(C[C@@]1(c3cc4nc(N5CCN(C)CC5)ccc4o3)NC(=O)NC1=O)C2 [Compound 2125] | – | 0.5 | – | 144 | 1.52 | – | – | –
47 | COc1ccc2c(c1)C(=O)N(C[C@@]1(c3cc4nc(-c5c(C)nn(C)c5C)ccc4o3)NC(=O)NC1=O)C2 [Compound 2105] | – | 0.155 | – | 216 | 7.54 | – | – | –
